Experimental findings from US8772266B2, “Fungicide pyrazole carboxamides derivates” (Bayer Cropscience AG, priority 2009, dated 2014) are described below.

For the first data set, the system named is Sphaerotheca fuliginea. Nature of the data set: In vivo preventive test on Sphaerotheca fuliginea (cucumber), Example G. The following applies: 10 ppm of active ingredient, evaluated 7 days after inoculation. From the text:
After the spray coating has dried on, the plants are inoculated with an aqueous spore suspension of Sphaerotheca fuliginea.
`CC(C)c1ccccc1CN(C(=S)c1c(C(F)F)nn(C)c1F)C1CC1` [Example 131] registered a disease control of 100%. In the case of `CC(c1ncc(Cl)cc1Cl)N(C(=O)c1c(C(F)F)nn(C)c1F)C1CC1` (centres unmarked) [Example 62], the disease control was 100%. On the same count and under the same terms, with `CC(C)Cc1cccc(Cl)c1CN(C(=O)c1c(C(F)F)nn(C)c1F)C1CC1` [Example 32] the figure was 100%; with `Cn1nc(C(F)F)c(C(=O)N(Cc2c([Si](C)(C)C)ccc(F)c2F)C2CC2)c1F` [Example 49], 100%. Compound `CC1CCc2cccc(C(C)N(C(=O)c3c(C(F)F)nn(C)c3F)C3CC3)c2C1` (mixture of isomers) [Example 50] had a disease control of 100%. As to `Cn1nc(C(F)F)c(C(=O)N(Cc2c(F)cccc2[Si](C)(C)C)C2CC2)c1F` [Example 11], the disease control was found to be 100%. Take `Cn1nc(C(F)F)c(C(=O)N(Cc2ccccc2C2CCCC2)C2CC2)c1F` [Example 82]: the disease control was determined as 100%. In turn, `CC(c1cc(Cl)ccc1C(F)(F)F)N(C(=O)c1c(C(F)F)nn(C)c1F)C1CC1` (centres unmarked) [Example 101] displayed a disease control of 100%. Take `CC[Si](C)(C)c1ccccc1CN(C(=O)c1c(C(F)F)nn(C)c1F)C1CC1` [Example 13]: the disease control is 100%. With `CCCCCc1ccccc1C(C)N(C(=O)c1c(C(F)F)nn(C)c1F)C1CC1` (racemic) [Example 26], the disease control was 100%. Compound `CC(c1ccc(Cl)cc1Cl)N(C(=O)c1c(C(F)F)nn(C)c1F)C1CC1` (centres unmarked) [Example 70] had a disease control of 100%. The same measure, in the same setting: with `CC(c1cccc2c1OC(F)(F)O2)N(C(=O)c1c(C(F)F)nn(C)c1F)C1CC1` (racemic) [Example 72] the figure was 100%; with `Cc1ccc(C(F)(F)F)c(CN(C(=O)c2c(C(F)F)nn(C)c2F)C2CC2)c1` [Example 12], 100%.

With `Cn1nc(C(F)F)c(C(=O)N(Cc2ccccc2C2CC2)C2CC2)c1F` [Example 47], the disease control is 100%. Turning to `Cn1nc(C(F)F)c(C(=O)N(Cc2c(Cl)cccc2Br)C2CC2)c1F` [Example 83], the disease control is reported as 100%. Compound `CCCCCc1cccc(Cl)c1CN(C(=O)c1c(C(F)F)nn(C)c1F)C1CC1` [Example 27] yielded a disease control of 100%. On to `Cn1nc(C(F)F)c(C(=S)N(Cc2c(Cl)cccc2C(F)(F)F)C2CC2)c1F` [Example 132], for which the disease control came out at 100%. `Cn1nc(C(F)F)c(C(=O)N(Cc2c(C(F)(F)F)ccc(F)c2F)C2CC2)c1F` [Example 68] came in with a disease control of 100%. Consider `Cn1nc(C(F)F)c(C(=O)N(C2CC2)C2CCC(C)(C)c3ccccc32)c1F` (centres unmarked) [Example 99], for which the disease control was found to be 100%.

For `CCCCc1ccc(Cl)cc1CN(C(=O)c1c(C(F)F)nn(C)c1F)C1CC1` [Example 119], the disease control amounted to 100%. The compound `Cn1nc(C(F)F)c(C(=O)N(Cc2c(Cl)cccc2C2CC2)C2CC2)c1F` [Example 113] had a disease control of 100%. The compound `CCCCc1ccc(F)c(F)c1CN(C(=O)c1c(C(F)F)nn(C)c1F)C1CC1` [Example 126] came in with a disease control of 100%. As to `CCCCc1cccc(Cl)c1CN(C(=O)c1c(C(F)F)nn(C)c1F)C1CC1` [Example 115], the disease control stood at 100%.

The compound `Cn1nc(C(F)F)c(C(=O)N(Cc2c(F)cccc2C2CCCC2)C2CC2)c1F` [Example 137] had a disease control of 100%.

The test system of a further data set is Fusarium nivale. Nature of the data set: In vivo curative test on Fusarium nivale (wheat). The following applies: 500 ppm of active ingredient, evaluated 8 days after inoculation.
The compound `CCc1ccccc1CN(C(=O)c1c(C(F)F)nn(C)c1F)C1CC1` [Example 48] showed a disease control of 100%. As for `Cn1nc(C(F)F)c(C(=O)N(Cc2ccccc2I)C2CC2)c1F` [Example 9], the disease control is 100%. Turning to `CC(c1ncc(C(F)(F)F)cc1Cl)N(C(=O)c1c(C(F)F)nn(C)c1F)C1CC1` (centres unmarked) [Example 90], the disease control is 100%.

For the compound `Cn1nc(C(F)F)c(C(=O)N(Cc2cc(Cl)c(Cl)cc2C(F)(F)F)C2CC2)c1F` [Example 25], the disease control turned out to be 100%. `CC(C)Cc1ccccc1CN(C(=O)c1c(C(F)F)nn(C)c1F)C1CC1` [Example 33]: the disease control came out at 100%. In turn, `CC(c1cccc2c1CCCC2)N(C(=O)c1c(C(F)F)nn(C)c1F)C1CC1` (racemic) [Example 51] came in with a disease control of 100%. On the same count and under the same terms, with `CCc1cc(C)c(C)cc1CN(C(=O)c1c(C(F)F)nn(C)c1F)C1CC1` [Example 53] the figure was 100%. In turn, `Cn1nc(C(F)F)c(C(=O)N(Cc2cc(F)c(Br)cc2Br)C2CC2)c1F` [Example 16] yielded a disease control of 100%. For the compound `Cn1nc(C(F)F)c(C(=O)N(Cc2cc(I)ccc2C(F)(F)F)C2CC2)c1F` [Example 43], the disease control was 100%. For the compound `Cn1nc(C(F)F)c(C(=O)N(Cc2cc(Cl)ccc2Br)C2CC2)c1F` [Example 4], the disease control is 100%. For `Cn1nc(C(F)F)c(C(=O)N(Cc2cccc(-c3ccccc3)c2)C2CC2)c1F` [Example 64], the disease control is given as 100%. With `Cn1nc(C(F)F)c(C(=O)N(Cc2ccc(Cl)cc2I)C2CC2)c1F` [Example 20], the disease control was found to be 100%. For `Cn1nc(C(F)F)c(C(=O)N(Cc2cc(Cl)ccc2C(F)(F)F)C2CC2)c1Cl` [Example 36], the disease control came to 100%.

In turn, `Cc1cc(Br)c(CN(C(=O)c2c(C(F)F)nn(C)c2F)C2CC2)cc1Br` [Example 17] showed a disease control of 100%. For the compound `CC(c1cccc2c1CCC(C)(C)C2)N(C(=O)c1c(C(F)F)nn(C)c1F)C1CC1` (racemic) [Example 44], the disease control was found to be 100%. Take `Cn1nc(C(F)F)c(C(=O)N(Cc2ccccc2OC(F)(F)F)C2CC2)c1F` [Example 105]: the disease control was 100%.

For the compound `Cn1nc(C(F)F)c(C(=S)N(Cc2ccccc2)C2CC2)c1F` [Example 39], the disease control is listed as 100%.

System in another data set: not listed separately
Nature of the data set: logP by HPLC on reversed-phase column (EEC Directive 79/831 Annex V.A8). The following applies: HPLC on reversed-phase column (C 18), 40° C., 0.1% aqueous formic acid and acetonitrile, linear gradient 10% to 90% acetonitrile.
Broadly, the logP is a log measure of how a compound divides between an organic and an aqueous phase. High values mean a more lipophilic compound, low ones a more hydrophilic compound. In turn, `CC(C)c1ccccc1CN(C(=S)c1c(C(F)F)nn(C)c1F)C1CC1` [Example 131] yielded a log partition coefficient (logP) of 4.36. On the same count and under the same terms, the result for `CC(c1cc(Cl)ccc1C(F)(F)F)N(C(=O)c1c(C(F)F)nn(C)c1F)C1CC1` (centres unmarked) [Example 101] reads 3.92. As for `Cn1nc(C(F)F)c(C(=O)N(Cc2ccccc2OC(F)(F)F)C2CC2)c1F` [Example 105], the logP came out at 3.46. The compound `Cn1nc(C(F)F)c(C(=S)N(Cc2c(Cl)cccc2C(F)(F)F)C2CC2)c1F` [Example 132] returned a logP of 4.23.

Still in this data set, the particulars now being: HPLC, reversed-phase column (C 18), 40° C., 0.1% aqueous formic acid and acetonitrile, linear gradient 10% to 90% acetonitrile.
For `CCc1ccccc1CN(C(=O)c1c(C(F)F)nn(C)c1F)C1CC1` [Example 48], the logP is reported as 3.33. The compound `CC(c1ncc(Cl)cc1Cl)N(C(=O)c1c(C(F)F)nn(C)c1F)C1CC1` (centres unmarked) [Example 62] returned a logP of 3.48. For the compound `CC(C)Cc1cccc(Cl)c1CN(C(=O)c1c(C(F)F)nn(C)c1F)C1CC1` [Example 32], the logP is given as 4.44.

In turn, `Cn1nc(C(F)F)c(C(=O)N(Cc2c([Si](C)(C)C)ccc(F)c2F)C2CC2)c1F` [Example 49] gave a logP of 4.36. The compound `Cn1nc(C(F)F)c(C(=O)N(Cc2ccccc2I)C2CC2)c1F` [Example 9] displayed a logP of 3.37. With `CC(c1ncc(C(F)(F)F)cc1Cl)N(C(=O)c1c(C(F)F)nn(C)c1F)C1CC1` (centres unmarked) [Example 90], the logP came to 3.71.

`Cn1nc(C(F)F)c(C(=O)N(Cc2cc(Cl)c(Cl)cc2C(F)(F)F)C2CC2)c1F` [Example 25] returned a logP of 4.34.

Take `CC1CCc2cccc(C(C)N(C(=O)c3c(C(F)F)nn(C)c3F)C3CC3)c2C1` (mixture of isomers) [Example 50]: the logP is given as 4.59. In the case of `CC(C)Cc1ccccc1CN(C(=O)c1c(C(F)F)nn(C)c1F)C1CC1` [Example 33], the logP came out at 4.15.

Turning to `Cn1nc(C(F)F)c(C(=O)N(Cc2c(F)cccc2[Si](C)(C)C)C2CC2)c1F` [Example 11], the logP was found to be 4.31. The compound `CC(c1cccc2c1CCCC2)N(C(=O)c1c(C(F)F)nn(C)c1F)C1CC1` (racemic) [Example 51] came in with a lipophilicity (logP) of 4.14. The compound `Cn1nc(C(F)F)c(C(=O)N(Cc2ccccc2C2CCCC2)C2CC2)c1F` [Example 82] gave a logP of 4.2. On to `CCc1cc(C)c(C)cc1CN(C(=O)c1c(C(F)F)nn(C)c1F)C1CC1` [Example 53], for which the logP is reported as 4.04. In the case of `Cn1nc(C(F)F)c(C(=O)N(Cc2cc(F)c(Br)cc2Br)C2CC2)c1F` [Example 16], the logP turned out to be 3.96.

Compound `Cn1nc(C(F)F)c(C(=O)N(Cc2cc(I)ccc2C(F)(F)F)C2CC2)c1F` [Example 43] gave a logP of 4.01. Take `Cn1nc(C(F)F)c(C(=O)N(Cc2cc(Cl)ccc2Br)C2CC2)c1F` [Example 4]: the logP amounted to 3.67. Turning to `Cn1nc(C(F)F)c(C(=O)N(Cc2cccc(-c3ccccc3)c2)C2CC2)c1F` [Example 64], the logP is on record as 3.78. Turning to `Cn1nc(C(F)F)c(C(=O)N(Cc2ccc(Cl)cc2I)C2CC2)c1F` [Example 20], the logP amounted to 3.99. `CC[Si](C)(C)c1ccccc1CN(C(=O)c1c(C(F)F)nn(C)c1F)C1CC1` [Example 13] yielded a logP of 4.75. With `CCCCCc1ccccc1C(C)N(C(=O)c1c(C(F)F)nn(C)c1F)C1CC1` (racemic) [Example 26], the logP is given as 4.92. `Cn1nc(C(F)F)c(C(=O)N(Cc2cc(Cl)ccc2C(F)(F)F)C2CC2)c1Cl` [Example 36] showed a logP of 4.01. In turn, `CC(c1ccc(Cl)cc1Cl)N(C(=O)c1c(C(F)F)nn(C)c1F)C1CC1` (centres unmarked) [Example 70] returned a logP of 3.83. The compound `Cc1cc(Br)c(CN(C(=O)c2c(C(F)F)nn(C)c2F)C2CC2)cc1Br` [Example 17] registered a logP of 4.19.

The compound `CC(c1cccc2c1CCC(C)(C)C2)N(C(=O)c1c(C(F)F)nn(C)c1F)C1CC1` (racemic) [Example 44] gave a logP of 4.89. On to `CC(c1cccc2c1OC(F)(F)O2)N(C(=O)c1c(C(F)F)nn(C)c1F)C1CC1` (racemic) [Example 72], for which the logP turned out to be 3.58.

Compound `Cc1ccc(C(F)(F)F)c(CN(C(=O)c2c(C(F)F)nn(C)c2F)C2CC2)c1` [Example 12] came in with a logP of 3.78. Compound `Cn1nc(C(F)F)c(C(=O)N(Cc2ccccc2C2CC2)C2CC2)c1F` [Example 47] had a logP of 3.44. The same measure, in the same setting: the result for `Cn1nc(C(F)F)c(C(=O)N(Cc2c(Cl)cccc2Br)C2CC2)c1F` [Example 83] reads 3.42; that for `CCCCCc1cccc(Cl)c1CN(C(=O)c1c(C(F)F)nn(C)c1F)C1CC1` [Example 27], 5. Turning to `Cn1nc(C(F)F)c(C(=S)N(Cc2ccccc2)C2CC2)c1F` [Example 39], the logP came out at 3.44. `Cn1nc(C(F)F)c(C(=O)N(Cc2c(C(F)(F)F)ccc(F)c2F)C2CC2)c1F` [Example 68] came in with a logP of 3.31. Regarding `Cn1nc(C(F)F)c(C(=O)N(C2CC2)C2CCC(C)(C)c3ccccc32)c1F` (centres unmarked) [Example 99], the logP turned out to be 4.16.
